The values that follow are results of earlier work, collected in PMC12649378, “Comparative Pharmacokinetics and Safety of a Micellar Chrysin–Quercetin–Rutin Formulation: A Randomized Crossover Trial” (Antioxidants, 2025).

In general, aqueous solubility refers to the dissolved amount per volume that the medium holds.

Experiment in series [1]: not given
The source holds these as a separate data set.

Where a name gives a salt, the structure may show the parent alone. A value given as a limit tells only on which side of the number the result lay.

In the case of `O=c1cc(-c2ccccc2)oc2cc(OS(=O)(=O)O)cc(O)c12` [chrysin sulfate], the “circulating metabolite concentration exceeding parent chrysin concentrations” value (in vivo) is ~ 30 fold.
With `O=c1cc(-c2ccccc2)oc2cc(O)cc(O)c12` [chrysin, 5,7-dihydroxyflavone], in series [1], the aqueous solubility is listed as below 1 µg/mL and the “weak acidity (pH)” value was “≈ 6.7”. The peak plasma levels (humans, 400 mg of unformulated chrysin) is 3 to 16 ng/mL.
